The IC50 is the concentration that gives 50% inhibition.

Where a SMILES comes first, the peptide text is derived from it. [ ]: non-standard residue; d: D form. The star is where a group is joined. Fmoc = O=C(OCC1c2ccccc2-c2ccccc21)*; NMeF = CN[C@@H](Cc1ccccc1)C(=O)O; NMePhg = CN[C@H](C(=O)O)c1ccccc1; Cha = N[C@@H](CC1CCCCC1)C(=O)O

One test deals with T1, Ribonucleoside-diphosphate reductase RR1 (Homo sapiens, UniProt P23921+P31350+Q7LG56).
T1 sequence (P23921 whole entry): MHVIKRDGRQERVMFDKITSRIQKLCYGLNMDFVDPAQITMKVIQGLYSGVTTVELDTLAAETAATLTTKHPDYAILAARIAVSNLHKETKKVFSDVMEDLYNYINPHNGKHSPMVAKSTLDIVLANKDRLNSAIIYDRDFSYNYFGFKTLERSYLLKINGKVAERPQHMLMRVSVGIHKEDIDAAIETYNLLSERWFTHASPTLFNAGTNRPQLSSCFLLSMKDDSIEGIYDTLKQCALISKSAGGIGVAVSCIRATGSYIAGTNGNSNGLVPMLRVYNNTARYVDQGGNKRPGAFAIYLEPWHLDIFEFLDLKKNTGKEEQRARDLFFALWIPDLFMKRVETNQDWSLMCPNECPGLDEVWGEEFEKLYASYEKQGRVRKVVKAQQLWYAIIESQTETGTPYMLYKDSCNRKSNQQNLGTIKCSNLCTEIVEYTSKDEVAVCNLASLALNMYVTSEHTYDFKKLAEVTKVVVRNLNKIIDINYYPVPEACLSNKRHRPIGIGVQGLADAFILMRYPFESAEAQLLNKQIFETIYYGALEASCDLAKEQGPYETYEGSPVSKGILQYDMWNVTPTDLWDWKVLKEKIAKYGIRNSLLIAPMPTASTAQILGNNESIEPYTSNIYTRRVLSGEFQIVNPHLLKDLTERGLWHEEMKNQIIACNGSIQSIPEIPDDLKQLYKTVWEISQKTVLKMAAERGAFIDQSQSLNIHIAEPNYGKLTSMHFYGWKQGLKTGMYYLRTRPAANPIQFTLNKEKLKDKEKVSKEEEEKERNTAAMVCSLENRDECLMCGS
T1 sequence (Q7LG56 whole entry): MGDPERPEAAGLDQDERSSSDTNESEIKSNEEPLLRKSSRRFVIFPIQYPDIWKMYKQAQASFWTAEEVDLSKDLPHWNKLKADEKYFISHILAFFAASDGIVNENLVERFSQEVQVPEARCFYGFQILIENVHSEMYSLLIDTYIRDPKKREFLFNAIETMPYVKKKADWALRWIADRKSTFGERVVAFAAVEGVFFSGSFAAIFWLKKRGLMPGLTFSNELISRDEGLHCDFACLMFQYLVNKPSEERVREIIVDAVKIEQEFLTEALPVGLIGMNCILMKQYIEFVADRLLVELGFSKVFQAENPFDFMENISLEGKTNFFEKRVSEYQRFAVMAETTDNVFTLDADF
T1 sequence (P31350 whole entry): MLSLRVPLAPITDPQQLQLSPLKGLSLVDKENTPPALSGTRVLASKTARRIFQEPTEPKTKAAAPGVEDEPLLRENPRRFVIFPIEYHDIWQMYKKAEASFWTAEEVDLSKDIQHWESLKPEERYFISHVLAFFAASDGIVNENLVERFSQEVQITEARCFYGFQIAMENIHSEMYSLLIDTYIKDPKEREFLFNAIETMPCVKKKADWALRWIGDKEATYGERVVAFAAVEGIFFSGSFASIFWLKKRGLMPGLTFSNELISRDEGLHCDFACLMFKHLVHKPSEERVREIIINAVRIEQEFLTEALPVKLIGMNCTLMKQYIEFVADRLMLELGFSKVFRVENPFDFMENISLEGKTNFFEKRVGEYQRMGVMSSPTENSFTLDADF
The experiment in a line: (§1) Inhibition of mammalian ribonucleotide reductase in a standard dTTP-dependent GDP reductase assay. The format is protein-complex assay.
With `CC(C)C[C@H](NC(=O)[C@H](c1ccccc1)N(C)C(=O)OCC1c2ccccc2-c2ccccc21)C(=O)N[C@@H](CC(=O)O)C(=O)N[C@@H](CC1CCCCC1)C(=O)N[C@@H](CC(=O)O)C(=O)N[C@@H](Cc1ccccc1)C(=O)O` (Fmoc-[NMePhg]LD[Cha]DF-OH), the IC50 was determined as 1.9 µM.

Ac-FTLDADF-OH: half-maximal inhibition (IC50) was put at 13.3 µM.

In turn, `CC(C)[C@H](NC(=O)[C@H](Cc1c[nH]c2ccccc12)NC(=O)OCC1c2ccccc2-c2ccccc21)C(=O)N[C@@H](Cc1ccccc1)C(=O)N[C@@H](Cc1ccccc1)C(=O)O` (Fmoc-WVFF-OH) returned an IC50 of 20 µM. Compared with the last molecule, the IC50 is about 1.5-fold higher.

Take `O=C(O)C[C@H](NC(=O)[C@H](Cc1ccccc1)NC(=O)[C@H](Cc1c[nH]c2ccccc12)NC(=O)OCC1c2ccccc2-c2ccccc21)C(=O)N[C@@H](Cc1ccccc1)C(=O)O` (Fmoc-WFDF-OH): the IC50 is 22 µM.

For a further test, the target named is T2, Ribonucleoside-diphosphate reductase RR1 (Homo sapiens, UniProt P23921+Q7LG56+P31350).
T2 sequence (P23921 whole entry): T1 sequence (P23921 whole entry)
T2 sequence (Q7LG56 whole entry): T1 sequence (Q7LG56 whole entry)
T2 sequence (P31350 whole entry): T1 sequence (P31350 whole entry)
The description is as §1. The format is protein-complex assay.
As for `CC(C)C[C@H](NC(=O)[C@H](Cc1ccccc1)N(C)C(=O)OCC1c2ccccc2-c2ccccc21)C(=O)N[C@@H](CCC(=O)O)C(=O)N[C@@H](CC1CCCCC1)C(=O)N[C@@H](CC(=O)O)C(=O)N[C@@H](Cc1ccccc1)C(=O)O` (Fmoc-[NMeF]LE[Cha]DF-OH), it took 2.4 µM to reach half-maximal inhibition (IC50). That is a single-digit micromolar value.

Regarding `CC(C)C[C@H](NC(=O)[C@H](Cc1ccccc1)N(C)C(=O)OCC1c2ccccc2-c2ccccc21)C(=O)N[C@@H](CC(=O)O)C(=O)N[C@@H](CC1CCCCC1)C(=O)N[C@@H](CC(=O)O)C(=O)N[C@@H](Cc1ccccc1)C(=O)O` (Fmoc-[NMeF]LD[Cha]DF-OH), the IC50 is 2.4 µM. In other words, the single-digit micromolar range.
